Read-outs that look alike come from different tables or passages of the source.
Legend:
[1] = biological target: T1, butyrylcholinesterase from human serum (Homo sapiens, UniProt P06276); test: Inhibition of butyrylcholinesterase from human serum (Ellman colorimetric method); assay type: biochemical
T1 construct: purchased Sigma Chemical; host or cells: human serum

[2] = biological target: T2, acetylcholinesterase from human red blood cells (Homo sapiens, UniProt P22303); test: Inhibition of acetylcholinesterase from human erythrocyte (Ellman colorimetric method); assay type: biochemical; settings: for Activity against human red blood cells acetylcholinesterase (in words): Table 2 results
T2 construct: purchased Sigma Chemical; host or cells: human erythrocyte

[3] = biological target: T3, acetylcholinesterase from electric eel (Electrophorus electricus, UniProt O42275); test: biochemical
T3 construct: purchased Sigma Chemical; host or cells: electric eel

in vivo = settings: rat, po
[4] = Cholinesterase Inhibition IC50, AChE hRBC, contact time 30'
[5] = Cholinesterase Inhibition IC50, AChE hRBC, contact time 60'
[6] = contact time 10', read-out: Cholinesterase Inhibition IC50, AChE hRBC
[7] = Cholinesterase Inhibition IC50, AChE E.eel, contact time 10'
[8] = Cholinesterase Inhibition IC50, AChE hRBC, contact time 10'
[9] = Cholinesterase Inhibition IC50, AChE E.eel, contact time 30'

T1 sequence (P06276 29-602): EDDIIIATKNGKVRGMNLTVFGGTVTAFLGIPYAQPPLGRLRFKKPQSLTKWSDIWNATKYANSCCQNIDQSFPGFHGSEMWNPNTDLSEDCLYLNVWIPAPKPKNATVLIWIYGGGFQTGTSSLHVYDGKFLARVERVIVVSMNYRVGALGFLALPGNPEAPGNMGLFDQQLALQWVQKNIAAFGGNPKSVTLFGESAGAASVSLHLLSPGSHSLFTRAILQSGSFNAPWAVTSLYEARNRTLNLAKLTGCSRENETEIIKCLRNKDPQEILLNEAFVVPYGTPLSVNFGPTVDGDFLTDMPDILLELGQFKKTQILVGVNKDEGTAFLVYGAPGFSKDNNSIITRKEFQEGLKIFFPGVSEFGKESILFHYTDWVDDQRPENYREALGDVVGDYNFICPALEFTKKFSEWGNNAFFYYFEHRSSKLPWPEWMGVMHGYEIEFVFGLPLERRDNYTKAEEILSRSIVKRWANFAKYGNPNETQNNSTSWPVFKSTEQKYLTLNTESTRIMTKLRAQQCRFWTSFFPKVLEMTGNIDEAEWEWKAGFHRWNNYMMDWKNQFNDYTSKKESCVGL
T2 sequence (P22303 32-617 isoform P22303-2 limits assumed): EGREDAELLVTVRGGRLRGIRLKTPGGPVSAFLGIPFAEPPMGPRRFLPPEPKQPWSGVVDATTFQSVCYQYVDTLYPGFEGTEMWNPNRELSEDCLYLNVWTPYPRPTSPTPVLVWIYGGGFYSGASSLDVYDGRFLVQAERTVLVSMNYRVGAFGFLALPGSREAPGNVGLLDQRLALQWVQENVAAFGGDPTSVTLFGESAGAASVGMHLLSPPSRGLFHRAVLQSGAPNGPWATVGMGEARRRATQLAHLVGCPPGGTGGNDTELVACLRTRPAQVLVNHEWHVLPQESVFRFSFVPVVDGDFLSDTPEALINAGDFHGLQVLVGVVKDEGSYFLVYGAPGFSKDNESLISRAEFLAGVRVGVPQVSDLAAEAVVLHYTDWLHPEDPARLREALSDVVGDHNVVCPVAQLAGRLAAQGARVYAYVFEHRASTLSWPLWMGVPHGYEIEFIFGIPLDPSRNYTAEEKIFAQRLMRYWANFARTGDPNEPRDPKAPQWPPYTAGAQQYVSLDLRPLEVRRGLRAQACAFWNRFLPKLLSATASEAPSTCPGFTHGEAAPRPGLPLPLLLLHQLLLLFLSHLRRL
T3 sequence (O42275 24-633): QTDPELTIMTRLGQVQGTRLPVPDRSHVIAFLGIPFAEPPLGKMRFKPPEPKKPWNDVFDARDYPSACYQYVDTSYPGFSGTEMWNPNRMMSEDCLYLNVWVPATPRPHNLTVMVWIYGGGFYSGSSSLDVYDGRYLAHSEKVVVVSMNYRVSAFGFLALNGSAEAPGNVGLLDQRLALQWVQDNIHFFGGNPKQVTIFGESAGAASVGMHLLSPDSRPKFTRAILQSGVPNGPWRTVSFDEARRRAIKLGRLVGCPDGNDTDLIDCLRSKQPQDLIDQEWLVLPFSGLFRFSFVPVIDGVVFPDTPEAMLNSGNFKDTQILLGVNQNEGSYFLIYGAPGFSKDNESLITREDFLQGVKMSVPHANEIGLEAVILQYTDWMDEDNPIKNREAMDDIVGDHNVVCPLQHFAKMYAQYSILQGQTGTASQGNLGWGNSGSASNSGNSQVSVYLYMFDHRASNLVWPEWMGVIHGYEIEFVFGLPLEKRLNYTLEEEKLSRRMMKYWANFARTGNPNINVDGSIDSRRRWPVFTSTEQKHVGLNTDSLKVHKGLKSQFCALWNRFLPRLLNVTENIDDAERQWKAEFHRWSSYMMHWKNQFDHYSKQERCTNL

SMILES | IC50 [2, 8] [nM] | Activity against human red blood cells acetylcholinesterase (in words) [2] | also measured
CN1CC[C@@]2(C)c3cc(OC(=O)NCCN4CCOCC4)ccc3N(C)[C@@H]12 [MF 214, N-morpholinylethylcarbamoyleseroline] |  |  | IC50 [1]: 4100 nM; IC50 [2, 4]: 140 nM; IC50 [2, 5]: 110 nM; IC50 [2, 6]: 700 nM
CN1CC[C@@]2(C)c3cc(OC(=O)NCCCN4CCOCC4)ccc3N(C)[C@@H]12 [MF 218, N-morpholinylpropylcarbamoyleseroline] |  |  | IC50 [2, 6]: 3800 nM
CN1CCN(CCCCCCCCCCCCNC(=O)Oc2ccc3c(c2)[C@]2(C)CCN(C)[C@@H]2N3C)CC1 [MF 229] | 60 | Particularly active | IC50 [3, 7]: 40 nM
CN1CCN(CCCCCCCCNC(=O)Oc2ccc3c(c2)[C@]2(C)CCN(C)[C@@H]2N3C)CC1 [MF 230, N-(N-methylpiperazinyloctyl)carbamoyleseroline] | 30 | Particularly active | LD50 (in vivo): 27.7 mg/kg; IC50 [3, 7]: 200 nM; IC50 [3, 9]: 80 nM; IC50 [2, 4]: 50 nM
CN1CC[C@@]2(C)c3cc(OC(=O)NCCCCCCCCCCN4CCOCC4)ccc3N(C)[C@@H]12 [MF 231] |  | Particularly active | LD50 (in vivo): 40 mg/kg; IC50 [3, 7]: 60 nM; IC50 [2, 6]: 40 nM
CN1CC[C@@]2(C)c3cc(OC(=O)NCCCCCCCCCCCN4CCOCC4)ccc3N(C)[C@@H]12 [MF 232] |  |  | IC50 [3, 7]: 70 nM; IC50 [2, 6]: 40 nM
CN1CC[C@@]2(C)c3cc(OC(=O)NCCCCCCCCCN4CCOCC4)ccc3N(C)[C@@H]12 [MF 233] |  | Particularly active | IC50 ([3]; read-out: Cholinesterase Inhibition IC50, AChE E.eel, contact time 10'): 140 nM; IC50 [2, 6]: 60 nM
CCN(CC)CCCCCCCCNC(=O)Oc1ccc2c(c1)[C@]1(C)CCN(C)[C@@H]1N2C [MF 237] | 110 | Particularly active | IC50 [3, 7]: 340 nM; IC50 [3, 9]: 190 nM; IC50 ([3]; Cholinesterase Inhibition IC50, AChE E.eel, contact time 60'): 120 nM; IC50 [2, 4]: 70 nM; IC50 [2, 5]: 30 nM
CN1CC[C@@]2(C)c3cc(OC(=O)NCCCCCCCCN4CCSCC4)ccc3N(C)[C@@H]12 [MF 239] | 50 | Particularly active | LD50 (in vivo): 23.8 mg/kg
CC(=O)N1CCN(CCCCCCCCNC(=O)Oc2ccc3c(c2)[C@]2(C)CCN(C)[C@@H]2N3C)CC1 [MF 240] | 240 |  | 
CN1CC[C@@]2(C)c3cc(OC(=O)NCCCCCCCCN4CCCCC4)ccc3N(C)[C@@H]12 [MF 241, N-piperidinyloctylcarbamoyleseroline] | 100 | Particularly active | 
CN(CCCCCCCCN1CCOCC1)C(=O)Oc1ccc2c(c1)[C@]1(C)CCN(C)[C@@H]1N2C [MF 243, N-(morpholinyloctyl),N-methyl carbamoyl eseroline] | 7400 |  | 
CN1CCN(C(=O)CCCCCNC(=O)Oc2ccc3c(c2)[C@]2(C)CCN(C)[C@@H]2N3C)CC1 [MF 245] | 5500 |  | 
CC(=O)N1CCN(CCNC(=O)Oc2ccc3c(c2)[C@]2(C)CCN(C)[C@@H]2N3C)CC1 [MF 246] | 20000 |  | 
CCN(CC)CCCCCCCCCCNC(=O)Oc1ccc2c(c1)[C@]1(C)CCN(C)[C@@H]1N2C [MF 247] | 17 | Particularly active | 
CN1CC[C@@]2(C)c3cc(OC(=O)NCCCCCCCCCCN4CCCCC4)ccc3N(C)[C@@H]12 [MF 248] | 19 | Particularly active | LD50 (in vivo): 15.3 mg/kg
CN1CC[C@@]2(C)c3cc(OC(=O)NCCCCCCCCCCCCN4CCCCC4)ccc3N(C)[C@@H]12 [MF 249] | 50 | Particularly active | 
CN1CC[C@@]2(C)c3cc(OC(=O)NCCCCCCCCN4CC=CC4)ccc3N(C)[C@@H]12 [MF 250] | 30 |  | 
CN1CC[C@@]2(C)c3cc(OC(=O)NCCCCCCCCN4CCCC4)ccc3N(C)[C@@H]12 [MF 251, N-pyrrolidinyloctylcarbamoyleseroline] | 70 | Particularly active | 

SMILES | IC50 [2, 8] [nM] | Activity against human red blood cells acetylcholinesterase (in words) [2] | also measured
CC(=O)N1CCN(CCCCCCCCCCNC(=O)Oc2ccc3c(c2)[C@]2(C)CCN(C)[C@@H]2N3C)CC1 [MF 252] | 27 | Particularly active | 
CN1CC[C@@]2(C)c3cc(OC(=O)NCCCCCCCCCCN4CCCC4)ccc3N(C)[C@@H]12 [MF 253] | 30 | Particularly active | 
CCN(CC)CCCCCCCCCCCCNC(=O)Oc1ccc2c(c1)[C@]1(C)CCN(C)[C@@H]1N2C [MF 254] | 50 | Particularly active | 
CN1CCN(CCCCCCCCCCNC(=O)Oc2ccc3c(c2)[C@]2(C)CCN(C)[C@@H]2N3C)CC1 [MF 255] | 50 | Particularly active | 
CCCN(CCC)CCCCCCCCNC(=O)Oc1ccc2c(c1)[C@]1(C)CCN(C)[C@@H]1N2C [MF 256] | 80 | Particularly active | LD50 (in vivo): 18.3 mg/kg
CCCN(CCC)CCCCCCCCCCNC(=O)Oc1ccc2c(c1)[C@]1(C)CCN(C)[C@@H]1N2C [MF 257] | 30 | Particularly active | 
CCCN(CCC)CCCCCCCCCCCCNC(=O)Oc1ccc2c(c1)[C@]1(C)CCN(C)[C@@H]1N2C [MF 258] | 1000 |  | 
CCCN1CCN(CCCCCCCCNC(=O)Oc2ccc3c(c2)[C@]2(C)CCN(C)[C@@H]2N3C)CC1 [MF 261] | 20 | Particularly active | 
CCN1CCN(CCCCCCCCNC(=O)Oc2ccc3c(c2)[C@]2(C)CCN(C)[C@@H]2N3C)CC1 [MF 262] | 30 | Particularly active | 
CN(CCCCCCCCNC(=O)Oc1ccc2c(c1)[C@]1(C)CCN(C)[C@@H]1N2C)c1ccccc1 [MF 263] | 50 | Particularly active | 
CN1CC[C@@]2(C)c3cc(OC(=O)NCCCCCCCCN4CCC5(CC4)OCCO5)ccc3N(C)[C@@H]12 [MF 265] | 80 | Particularly active | 
CN1CC[C@@]2(C)c3cc(OC(=O)NCCCCCCCCN4CCN(Cc5ccccc5)CC4)ccc3N(C)[C@@H]12 [MF 266] | 70 | Particularly active | 
C[C@@H]1CN(CCCCCCCCNC(=O)Oc2ccc3c(c2)[C@]2(C)CCN(C)[C@@H]2N3C)C[C@H](C)O1 [MF 268, 8-(cis-2,6-dimethylmorpholinyl)octylcarbamoyl eseroline] | 70 | Particularly active | LD50 (in vivo): 56 mg/kg; IC50 [1]: 180 nM
CN1CC[C@@]2(C)c3cc(OC(=O)NCCCCCCCC(=O)N4CCOCC4)ccc3N(C)[C@@H]12 [MF 269] | 120 |  | 
CC(C)CN1CCN(CCCCCCCCNC(=O)Oc2ccc3c(c2)[C@]2(C)CCN(C)[C@@H]2N3C)CC1 [MF 270] | 60 |  | 
COCCN(CCCCCCCCNC(=O)Oc1ccc2c(c1)[C@]1(C)CCN(C)[C@@H]1N2C)CCOC [MF 271] | 50 | Particularly active | 
CCCCN1CCN(CCCCCCCCNC(=O)Oc2ccc3c(c2)[C@]2(C)CCN(C)[C@@H]2N3C)CC1 [MF 273] | 30 | Particularly active | 
CC(=O)N1CCN(CCCCCCCCCCCCNC(=O)Oc2ccc3c(c2)[C@]2(C)CCN(C)[C@@H]2N3C)CC1 [MF 275] | 50 |  | 
C[C@@H]1CN(CCCCCCCCNC(=O)Oc2ccc3c(c2)[C@]2(C)CCN(C)[C@@H]2N3C)C[C@@H](C)O1 [MF 276, 8-(trans-2,6-dimethyl)morpholinyloctylcarbamoyl eseroline] |  | Particularly active | IC50 ([1]; read-out: Cholinesterase Inhibition IC50, BuChE hserum, contact time 10'): 250 nM; IC50 ([2]; read-out: Cholinesterase Inhibition IC50, AChE hRBC, contact time 10'): 70 nM

Source: patent publication US5424451A, “Process for preparing aminoalkylcarbamic esters of eseroline” (priority 1992, dated 1995)
